For one compound, mean tumor volume and TGI value results are on record in US20260216174A1, “TREATMENT OF ER+ BREAST CANCER COMPRISING HOMOLOGOUS RECOMBINATION DEFICIENCY USING PARG INHIBITOR” (IDEAYA BIOSCIENCES, INC., priority 2023, published 2026).

SMILES strings stand for the structures.

This assay has as its system HCC1428 tumors. The experiment in a line: Cell line derived xenograft (CDX) study with HCC1428 tumors. It counts as in vivo, BALB/c nude mice. The following applies: 45 mg/kg QD p.o.; for TGI value: versus vehicle group. Here is the method:
For this xenograft, supplemental estradiol benzoate injections (40 μg/20 μl/mouse) are administered subcutaneously twice a week to BALB/c nude mice, starting one week prior to cell implantation and continuing through to the end of study. After implantation, HCC1428 tumor were allocated to treatment arms once a median tumor volume of about 181 mm^3 was reached. In Table 3A the abbreviation “p.o.” refers to oral administration and the abbreviation “QD×28” refers to administration once a day for 28 days.
Tumors were measured and mice were weighed twice a week during the experimental period. The tumor volume (mm3) was estimated using the formula: TV=a×b2/2, where “a” and “b” were the long and the short diameter of a tumor, respectively. The Tumor volumes were used to calculate tumor growth inhibition (TGI, an indicator of antitumor activity) using the formula: TGI %: (1−{T/T0/Ct/C0}/1−{C0/Ct})×100 where Tt=median tumor volume of treated at time t, T0=median tumor volume of treated at time 0, Ct=median tumor volume of control at time t and C0=median tumor volume of control at time 0.
For this xenograft, supplemental estradiol benzoate injections (40 μg/20 μl/mouse) are administered subcutaneously twice a week to BALB/c nude mice, starting one week prior to cell implantation and continuing through to the end of study. After implantation, HCC1428 tumor were allocated to treatment arms once a median tumor volume of about 181 mm^3 was reached. In Table 4A the abbreviation “p.o.” refers to oral administration and the abbreviation “QD×28” refers to administration once a day for 28 days.
Tumors were measured and mice were weighed twice a week during the experimental period. The tumor volume (mm^3) was estimated using the formula: TV=a×b2/2, where “a” and “b” were the long and the short diameter of a tumor, respectively. The Tumor volumes were used to calculate tumor growth inhibition (TGI, an indicator of antitumor activity) using the formula: TGI %: (1−{T/T0/Ct/C0}/1−{C0/Ct})×100 where Tt=median tumor volume of treated at time t, T0=median tumor volume of treated at time 0, Ct=median tumor volume of control at time t and C0=median tumor volume of control at time 0. […] At 100 mg/kg QD the mean tumor volume achieved was 116 mm3, on Day 71. The tumor growth inhibition (TGI) of these treatments compared with vehicle group on Day 28 or 71 of the treatment is summarized in Table 4B (See FIG. 3).

In the case of `NC(=O)c1cccc2cn(-c3ccc([C@@H]4CCCNC4)cc3)nc12` [niraparib, reference compound], where the note is “Compound A study”, the mean tumor volume worked out at 230 mm^3 and the TGI value was 75.2%. Where the note is “Compound B study”, this compound came in with a mean tumor volume of 230 mm^3 and a TGI value of 75.2%.
